Assay results taken from patent US10781160B1, “Hexadecyl Treprostinil crystals and methods for preparation thereof” (CHIROGATE INTERNATIONAL INC., priority 2019, dated 2020).

Format: physicochemical
Procedure: Moreover, the assay of Hexadecyl Treprostinil crystal Form I can be kept between about 98.0% to about 102.0% even after thirty-six months of placement under normal storage temperature (about 5° C. to about −20° C.). […] Moreover, the assay of Hexadecyl Treprostinil crystal Form II can be kept between about 98.0 to about 102.0% even after thirty-six months of placement under normal storage temperature (about 5° C. to about […]).

Hexadecyl Treprostinil [Hexadecyl Treprostinil crystal Form I]
stability (other crystalline forms or degraded products of impurities): no other crystalline forms or degraded products of impurities
